According to ChEMBL document CHEMBL1151757, “Synthesis, radiosynthesis, and biological evaluation of fluorine-18-labeled 2beta-carbo(fluoroalkoxy)-3beta-(3'-((Z)-2-haloethenyl)phenyl)nortropanes: candidate radioligands for in vivo imaging of the serotonin transporter with positron emission tomography” (J Med Chem, 2008):

Tests used:
[1] = Ratio of drug uptake in pons to cerebellum in anesthetized cynomolgus monkey after 125 mins postinjection; type: ADME, organism-based, Macaca fascicularis; settings: in vivo
[2] = Ratio of drug uptake in medulla to cerebellum in anesthetized cynomolgus monkey after 9.5 mins postinjection; type: ADME, organism-based, Macaca fascicularis; settings: in vivo
[3] = Ratio of drug uptake in medulla to cerebellum in anesthetized cynomolgus monkey after 95 mins postinjection; type: ADME, organism-based, Macaca fascicularis; settings: in vivo
[4] = Drug uptake in anesthetized cynomolgus monkey brain occipital lobe after 9.5 mins postinjection; type: ADME, organism-based, Macaca fascicularis; settings: in vivo
[5] = Drug uptake in anesthetized cynomolgus monkey brain occipital lobe after 15.5 mins postinjection; type: ADME, organism-based, Macaca fascicularis; settings: in vivo
[6] = Drug uptake in anesthetized cynomolgus monkey brain occipital lobe after 18.5 mins postinjection; type: ADME, organism-based, Macaca fascicularis; settings: in vivo
[7] = Drug uptake in anesthetized cynomolgus monkey brain occipital lobe after 165 mins postinjection; type: ADME, organism-based, Macaca fascicularis; settings: in vivo, 2.75 h
[8] = Drug uptake in anesthetized cynomolgus monkey brain occipital lobe after 235 mins postinjection; type: ADME, organism-based, Macaca fascicularis; settings: in vivo
[9] = Drug uptake in anesthetized cynomolgus monkey brain frontal lobe after 15.5 mins postinjection; type: ADME, organism-based, Macaca fascicularis; settings: in vivo
[10] = Drug uptake in anesthetized cynomolgus monkey brain frontal lobe after 18.5 mins postinjection; type: ADME, organism-based, Macaca fascicularis; settings: in vivo
[11] = Drug uptake in anesthetized cynomolgus monkey brain frontal lobe after 75 mins postinjection; type: ADME, organism-based, Macaca fascicularis; settings: in vivo, 1.25 h
[12] = Drug uptake in anesthetized cynomolgus monkey brain frontal lobe after 145 mins postinjection; type: ADME, organism-based, Macaca fascicularis; settings: in vivo
[13] = Drug uptake in anesthetized cynomolgus monkey brain frontal lobe after 155 mins postinjection; type: ADME, organism-based, Macaca fascicularis; settings: in vivo
[14] = Ratio of drug uptake in occipital lobe to cerebellum in anesthetized cynomolgus monkey after 95 mins postinjection; type: ADME, organism-based, Macaca fascicularis; settings: in vivo
[15] = Ratio of drug uptake in occipital lobe to cerebellum in anesthetized cynomolgus monkey after 175 mins postinjection; type: ADME, organism-based, Macaca fascicularis; settings: in vivo
Putamen [16] = assay: Drug uptake in anesthetized cynomolgus monkey brain putamen after 125 mins postinjection; type: ADME, organism-based, Macaca fascicularis; settings: in vivo
Putamen [17] = assay: Drug uptake in anesthetized cynomolgus monkey brain putamen after 235 mins postinjection; type: ADME, organism-based, Macaca fascicularis; settings: in vivo
[18] = Ratio of drug uptake in frontal lobe to cerebellum in anesthetized cynomolgus monkey after 125 mins postinjection; type: ADME, organism-based, Macaca fascicularis; settings: in vivo
Midbrain [19] = assay: Drug uptake in anesthetized cynomolgus monkey brain midbrain after 155 mins postinjection; type: ADME, organism-based, Macaca fascicularis; settings: in vivo
Pons [20] = assay: Drug uptake in anesthetized cynomolgus monkey brain pons after 1.5 mins postinjection; type: ADME, organism-based, Macaca fascicularis; settings: in vivo, 0.025 h
Pons [21] = assay: Drug uptake in anesthetized cynomolgus monkey brain pons after 4.5 mins postinjection; type: ADME, organism-based, Macaca fascicularis; settings: in vivo, 0.075 h
Pons [22] = assay: Drug uptake in anesthetized cynomolgus monkey brain pons after 9.5 mins postinjection; type: ADME, organism-based, Macaca fascicularis; settings: in vivo
Pons [23] = assay: Drug uptake in anesthetized cynomolgus monkey brain pons after 95 mins postinjection; type: ADME, organism-based, Macaca fascicularis; settings: in vivo
[24] = Ratio of drug uptake in caudate to cerebellum in anesthetized cynomolgus monkey after 0.5 mins postinjection; type: ADME, organism-based, Macaca fascicularis; settings: in vivo
Pons [25] = assay: Drug uptake in anesthetized cynomolgus monkey brain pons after 115 mins postinjection; type: ADME, organism-based, Macaca fascicularis; settings: in vivo
Pons [26] = assay: Drug uptake in anesthetized cynomolgus monkey brain pons after 175 mins postinjection; type: ADME, organism-based, Macaca fascicularis; settings: in vivo
Medulla [27] = assay: Drug uptake in anesthetized cynomolgus monkey brain medulla after 0.5 mins postinjection; type: ADME, organism-based, Macaca fascicularis; settings: in vivo
Medulla [28] = assay: Drug uptake in anesthetized cynomolgus monkey brain medulla after 1.5 mins postinjection; type: ADME, organism-based, Macaca fascicularis; settings: in vivo, 0.025 h
Medulla [29] = assay: Drug uptake in anesthetized cynomolgus monkey brain medulla after 75 mins postinjection; type: ADME, organism-based, Macaca fascicularis; settings: in vivo, 1.25 h
[30] = Ratio of drug uptake in putamen to cerebellum in anesthetized cynomolgus monkey after 6.5 mins postinjection; type: ADME, organism-based, Macaca fascicularis; settings: in vivo
[31] = Ratio of drug uptake in putamen to cerebellum in anesthetized cynomolgus monkey after 9.5 mins postinjection; type: ADME, organism-based, Macaca fascicularis; settings: in vivo
[32] = Ratio of drug uptake in putamen to cerebellum in anesthetized cynomolgus monkey after 45 mins postinjection; type: ADME, organism-based, Macaca fascicularis; settings: in vivo, 0.75 h
[33] = Drug uptake in anesthetized cynomolgus monkey brain cerebellum after 2.5 mins postinjection; type: ADME, organism-based, Macaca fascicularis; settings: in vivo
[34] = Drug uptake in anesthetized cynomolgus monkey brain cerebellum after 15.5 mins postinjection; type: ADME, organism-based, Macaca fascicularis; settings: in vivo
[35] = Drug uptake in anesthetized cynomolgus monkey brain cerebellum after 18.5 mins postinjection; type: ADME, organism-based, Macaca fascicularis; settings: in vivo
[36] = Drug uptake in anesthetized cynomolgus monkey brain cerebellum after 65 mins postinjection; type: ADME, organism-based, Macaca fascicularis; settings: in vivo
Medulla [37] = assay: Drug uptake in anesthetized cynomolgus monkey brain medulla after 115 mins postinjection; type: ADME, organism-based, Macaca fascicularis; settings: in vivo
[38] = Drug uptake in anesthetized cynomolgus monkey brain cerebellum after 225 mins postinjection; type: ADME, organism-based, Macaca fascicularis; settings: in vivo, 3.75 h
[39] = Ratio of drug uptake in thalamus to cerebellum in anesthetized cynomolgus monkey after 155 mins postinjection; type: ADME, organism-based, Macaca fascicularis; settings: in vivo
Caudate [40] = assay: Drug uptake in anesthetized cynomolgus monkey brain caudate after 2.5 mins postinjection; type: ADME, organism-based, Macaca fascicularis, Caudate nucleus; settings: in vivo
Caudate [41] = assay: Drug uptake in anesthetized cynomolgus monkey brain caudate after 6.5 mins postinjection; type: ADME, organism-based, Macaca fascicularis, Caudate nucleus; settings: in vivo
Caudate [42] = assay: Drug uptake in anesthetized cynomolgus monkey brain caudate after 95 mins postinjection; type: ADME, organism-based, Macaca fascicularis, Caudate nucleus; settings: in vivo
Caudate [43] = assay: Drug uptake in anesthetized cynomolgus monkey brain caudate after 155 mins postinjection; type: ADME, organism-based, Macaca fascicularis, Caudate nucleus; settings: in vivo
Caudate [44] = assay: Drug uptake in anesthetized cynomolgus monkey brain caudate after 215 mins postinjection; type: ADME, organism-based, Macaca fascicularis, Caudate nucleus; settings: in vivo
[45] = Ratio of drug uptake in occipital lobe to cerebellum in anesthetized cynomolgus monkey after 12.5 mins postinjection; type: ADME, organism-based, Macaca fascicularis; settings: in vivo
Thalamus [46] = assay: Drug uptake in anesthetized cynomolgus monkey brain thalamus after 45 mins postinjection; type: ADME, organism-based, Macaca fascicularis; set-up: unit not given here; settings: in vivo, 0.75 h
Putamen [47] = assay: Drug uptake in anesthetized cynomolgus monkey brain putamen after 95 mins postinjection; type: ADME, organism-based, Macaca fascicularis; set-up: unit not given here; settings: in vivo
Putamen [48] = assay: Drug uptake in anesthetized cynomolgus monkey brain putamen after 105 mins postinjection; type: ADME, organism-based, Macaca fascicularis; set-up: unit not given here; settings: in vivo, 1.75 h
Thalamus [49] = assay: Drug uptake in anesthetized cynomolgus monkey brain thalamus after 95 mins postinjection; type: ADME, organism-based, Macaca fascicularis; set-up: unit not given here; settings: in vivo
Thalamus [50] = assay: Drug uptake in anesthetized cynomolgus monkey brain thalamus after 105 mins postinjection; type: ADME, organism-based, Macaca fascicularis; set-up: unit not given here; settings: in vivo, 1.75 h
Thalamus [51] = assay: Drug uptake in anesthetized cynomolgus monkey brain thalamus after 135 mins postinjection; type: ADME, organism-based, Macaca fascicularis; set-up: unit not given here; settings: in vivo, 2.25 h
Thalamus [52] = assay: Drug uptake in anesthetized cynomolgus monkey brain thalamus after 225 mins postinjection; type: ADME, organism-based, Macaca fascicularis; set-up: unit not given here; settings: in vivo, 3.75 h
Midbrain [53] = assay: Drug uptake in anesthetized cynomolgus monkey brain midbrain after 2.5 mins postinjection; type: ADME, organism-based, Macaca fascicularis; set-up: unit not given here; settings: in vivo
Midbrain [54] = assay: Drug uptake in anesthetized cynomolgus monkey brain midbrain after 27.5 mins postinjection; type: ADME, organism-based, Macaca fascicularis; set-up: unit not given here; settings: in vivo
Midbrain [55] = assay: Drug uptake in anesthetized cynomolgus monkey brain midbrain after 55 mins postinjection; type: ADME, organism-based, Macaca fascicularis; set-up: unit not given here; settings: in vivo
Midbrain [56] = assay: Drug uptake in anesthetized cynomolgus monkey brain midbrain after 75 mins postinjection; type: ADME, organism-based, Macaca fascicularis; set-up: unit not given here; settings: in vivo, 1.25 h
Midbrain [57] = assay: Drug uptake in anesthetized cynomolgus monkey brain midbrain after 125 mins postinjection; type: ADME, organism-based, Macaca fascicularis; set-up: unit not given here; settings: in vivo

O=C(OCCC[18F])C1C2CCC(CC1c1cccc(/C=C\Br)c1)N2 (configuration not stated)
Ratio [1]: 1.4 | Ratio [2]: 1 | Ratio [3]: 1.5 | Drug uptake [4]: 3.77 | Drug uptake [5]: 4.29 | Drug uptake [6]: 4.35 | Drug uptake [7]: 3.22 | Drug uptake [8]: 2.53 | Drug uptake [9]: 3.38 | Drug uptake [10]: 3.7 | Drug uptake [11]: 3.49 | Drug uptake [12]: 2.85 | Drug uptake [13]: 2.65 | Ratio [14]: 1.1 | Ratio [15]: 1.3 | Drug uptake (Putamen [16]): 4.82 | Drug uptake (Putamen [17]): 3.27 | Ratio [18]: 0.9 | Drug uptake (Midbrain [19]): 5.23 | Drug uptake (Pons [20]): 0.38 | Drug uptake (Pons [21]): 2.44 | Drug uptake (Pons [22]): 4.14 | Drug uptake (Pons [23]): 4.68 | Ratio [24]: 0.9 | Drug uptake (Pons [25]): 4.2 | Drug uptake (Pons [26]): 3.78 | Drug uptake (Medulla [27]): 0.02 | Drug uptake (Medulla [28]): 0.42 | Drug uptake (Medulla [29]): 5.49 | Ratio [30]: 0.9 | Ratio [31]: 0.9 | Ratio [32]: 1.2 | Drug uptake [33]: 1.41 | Drug uptake [34]: 5.62 | Drug uptake [35]: 6.08 | Drug uptake [36]: 4.29 | Drug uptake (Medulla [37]): 5.07 | Drug uptake [38]: 2.03 | Ratio [39]: 1.6 | Drug uptake (Caudate [40]): 0.83 | Drug uptake (Caudate [41]): 3.14 | Drug uptake (Caudate [42]): 5.03 | Drug uptake (Caudate [43]): 4.18 | Drug uptake (Caudate [44]): 3.62 | Ratio [45]: 0.7 | Drug uptake (Thalamus [46]): 5.49 | Drug uptake (Putamen [47]): 5.28 | Drug uptake (Putamen [48]): 5.21 | Drug uptake (Thalamus [49]): 5.16 | Drug uptake (Thalamus [50]): 5.06 | Drug uptake (Thalamus [51]): 4.58 | Drug uptake (Thalamus [52]): 3.52 | Drug uptake (Midbrain [53]): 1.48 | Drug uptake (Midbrain [54]): 6.06 | Drug uptake (Midbrain [55]): 6.1 | Drug uptake (Midbrain [56]): 6.07 | Drug uptake (Midbrain [57]): 5.5
